Data: ChEMBL document CHEMBL5226381, “Iterative Methylation Leads to 3-Methylchuangxinmycin Production in Actinoplanes tsinanensis CPCC 200056” (2023)
Values after ≈ are worked out from the molar mass of the structure shown. Active and inactive are the calls of the source. The rule behind the calls is not given here.

Key:
[1] = system: Mycobacterium tuberculosis; assay: Antitubercular activity against Mycobacterium tuberculosis H37Rv assessed as inhibition of bacterial growth incubated for 7 to 10 days by Alamar Blue staining based analysis; type: functional; conditions: time 7-10 day
[2] = system: Mycobacterium tuberculosis; assay: Antitubercular activity against INH/RIF-sensitive Mycobacterium tuberculosis clinical isolate S23 assessed as inhibition of bacterial growth incubated for 7 to 10 days by Alamar Blue staining based analysis; type: functional; conditions: time 7-10 day
[3] = system: Mycobacterium tuberculosis; assay: Antitubercular activity against INH/RIF-sensitive Mycobacterium tuberculosis clinical isolate S17 assessed as inhibition of bacterial growth incubated for 7 to 10 days by Alamar Blue staining based analysis; type: functional; conditions: time 7-10 day
Pseudomonas aeruginosa = assay: Antibacterial activity against Pseudomonas aeruginosa ATCC 27853 assessed as inhibition of bacterial growth incubated for 18 hrs by agar dilution method; type: functional, organism-based
[4] = system: Stenotrophomonas maltophilia; assay: Antibacterial activity against Pseudomonas maltophilia ATCC 13636 assessed as inhibition of bacterial growth incubated for 18 hrs by agar dilution method; type: functional, organism-based
Enterobacter cloacae = assay: Antibacterial activity against Enterobacter cloacae ATCC 43560 assessed as inhibition of bacterial growth incubated for 18 hrs by agar dilution method; type: functional, organism-based
Escherichia coli [5] = assay: Antibacterial activity against Escherichia coli ATCC 25922 assessed as inhibition of bacterial growth incubated for 18 hrs by agar dilution method; type: functional, organism-based
Acinetobacter baumannii = assay: Antibacterial activity against Acinetobacter baumannii ATCC 19606 assessed as inhibition of bacterial growth incubated for 18 hrs by agar dilution method; type: functional, organism-based
Klebsiella pneumoniae [6] = assay: Antibacterial activity against Klebsiella pneumoniae ATCC 700603 assessed as inhibition of bacterial growth incubated for 18 hrs by agar dilution method; type: functional, organism-based
Serratia marcescens = assay: Antibacterial activity against Serratia marcescens ATCC 21074 assessed as inhibition of bacterial growth incubated for 18 hrs by agar dilution method; type: functional, organism-based
Proteus mirabilis = assay: Antibacterial activity against Proteus mirabilis ATCC 49565 assessed as inhibition of bacterial growth incubated for 18 hrs by agar dilution method; type: functional, organism-based
Klebsiella aerogenes = assay: Antibacterial activity against Enterobacter aerogenes ATCC 13048 assessed as inhibition of bacterial growth incubated for 18 hrs by agar dilution method; type: functional, organism-based
Escherichia coli [7] = assay: Antibacterial activity against Escherichia coli ATCC 35218 assessed as inhibition of bacterial growth incubated for 18 hrs by agar dilution method; type: functional, organism-based
Escherichia coli [8] = assay: Antibacterial activity against Escherichia coli 16-1 assessed as inhibition of bacterial growth incubated for 18 hrs by agar dilution method; type: functional, organism-based
Klebsiella pneumoniae [9] = assay: Antibacterial activity against Klebsiella pneumoniae ATCC BAA-2146 assessed as inhibition of bacterial growth incubated for 18 hrs by agar dilution method; type: functional, organism-based
[10] = system: Praffidenbacterium reggii; assay: Antibacterial activity against […] ATCC 31052 assessed as inhibition of bacterial growth incubated for 18 hrs by agar dilution method; type: functional
Escherichia coli [11] = assay: Antibacterial activity against Escherichia coli ATCC 2469 assessed as inhibition of bacterial growth incubated for 18 hrs by agar dilution method; type: functional, organism-based
Shigella flexneri = assay: Antibacterial activity against Shigella flexneri ATCC 12022 assessed as inhibition of bacterial growth incubated for 18 hrs by agar dilution method; type: functional, organism-based

Row | SMILES | MIC [1] | MIC [2] | MIC [3] | Activity (Pseudomonas aeruginosa) | Activity [4] | Activity (Enterobacter cloacae) | Activity (Escherichia coli [5]) | Activity (Acinetobacter baumannii) | Activity (Klebsiella pneumoniae [6]) | Activity (Serratia marcescens) | Activity (Proteus mirabilis) | Activity (Klebsiella aerogenes) | Activity (Escherichia coli [7]) | Activity (Escherichia coli [8]) | Activity (Klebsiella pneumoniae [9]) | Activity [10] | Activity (Escherichia coli [11]) | Activity (Shigella flexneri)
1 | O=C(O)[C@H]1Cc2c[nH]c3cccc(c23)S1 | 4 µg/mL (≈ 18.2 µM) | 0.78 µg/mL (≈ 3.56 µM) | 0.78 µg/mL (≈ 3.56 µM) | – | – | – | – | – | – | – | – | – | – | – | – | – | – | –
2 | NNC(=O)c1ccncc1 [ISONIAZID] | 0.06 µg/mL (≈ 0.438 µM) | 0.125 µg/mL (≈ 0.911 µM) | 0.125 µg/mL (≈ 0.911 µM) | – | – | – | – | – | – | – | – | – | – | – | – | – | – | –
3 | C[C@H]1c2c[nH]c3cccc(c23)S[C@H]1C(=O)O [CHUANGXINMYCIN] | 1 µg/mL (≈ 4.29 µM) | 0.78 µg/mL (≈ 3.34 µM) | 0.78 µg/mL (≈ 3.34 µM) | inactive | inactive | inactive | inactive | inactive | inactive | inactive | inactive | inactive | inactive | inactive | inactive | inactive | inactive | –
4 | CO[C@H]1/C=C/O[C@@]2(C)Oc3c(C)c(O)c4c(O)c(c(/C=N/N5CCN(C)CC5)c(O)c4c3C2=O)NC(=O)/C(C)=C\C=C\[C@H](C)[C@H](O)[C@@H](C)[C@@H](O)[C@@H](C)[C@H](OC(C)=O)[C@@H]1C [RIFAMPIN] | 0.25 µg/mL (≈ 0.304 µM) | 0.25 µg/mL (≈ 0.304 µM) | 0.25 µg/mL (≈ 0.304 µM) | – | – | – | – | – | – | – | – | – | – | – | – | – | – | –
5 | CC1(C)c2c[nH]c3cccc(c23)S[C@H]1C(=O)O | 32 µg/mL (≈ 129 µM) | 12.5 µg/mL (≈ 50.5 µM) | 50 µg/mL (≈ 202 µM) | inactive | inactive | inactive | inactive | inactive | inactive | inactive | inactive | inactive | inactive | inactive | inactive | inactive | inactive | inactive
